Our source for the Kd values is PMC4255499 (Frontiers in Physiology, 2014).

SMILES strings stand for the structures.

The assay has as its target T1, α1-microglobulin (A1M) (Homo sapiens, UniProt P02760).
T1 construct: gene AMBP; Recombinant human A1M with an N-terminal His8-tag (tgA1M)
T1 sequence (P02760 20-203): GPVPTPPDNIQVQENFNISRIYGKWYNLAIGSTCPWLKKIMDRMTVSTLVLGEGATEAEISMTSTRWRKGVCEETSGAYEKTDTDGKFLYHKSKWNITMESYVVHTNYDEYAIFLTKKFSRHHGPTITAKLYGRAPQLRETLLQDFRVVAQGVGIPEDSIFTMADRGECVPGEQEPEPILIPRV
Description: SPR (tgA1M captured by anti-His antibody, […] binding model); also UV/Vis titration, induced CD, native PAGE shift.

Broadly, the Kd is the free concentration of one partner at which half of the binding sites on the other are occupied at equilibrium, for simple one-to-one binding. Consider `C=CC1=C(C)C2=Cc3c(C=C)c(C)c4[n]3[Fe][n]3c(c(C)c(CCC(=O)O)c3=CC3=NC(=C4)C(C)=C3CCC(=O)O)=CC1=N2` [heme], for which the Kd stood at 7.02 µM.
